pKd, pKi: −log10 of the molar value.
Key:
[1] = molecular target: T1, Neuronal acetylcholine receptor; alpha4/beta2 (Homo sapiens, UniProt P17787+P43681); assay: Displacement of [3H]epibatidine from human alpha4beta2 nAChR extracted from HEK293 cell membrane assessed as inhibition constant incubated for 240 mins by liquid scintillation counting method; format: cell membranes
[2] = molecular target: T1, Neuronal acetylcholine receptor; alpha4/beta2; assay: Displacement of [3H]epibatidine from human alpha4beta2 nAChR extracted from HEK293 cell membrane assessed as association binding constant (Kon) incubated for 240 mins by liquid scintillation counting method; format: cell membranes
[3] = molecular target: T1, Neuronal acetylcholine receptor; alpha4/beta2; assay: Displacement of [3H]epibatidine from human alpha4beta2 nAChR extracted from HEK293 cell membrane assessed as dissociation binding constant (Koff) incubated for 240 mins by liquid scintillation counting method; format: cell membranes
[4] = molecular target: T1, Neuronal acetylcholine receptor; alpha4/beta2; assay: Displacement of [3H]epibatidine from human alpha4beta2 nAChR extracted from HEK293 cell membrane assessed as residence time incubated for 240 mins by liquid scintillation counting method; format: cell membranes
[5] = molecular target: T1, Neuronal acetylcholine receptor; alpha4/beta2; assay: Displacement of [3H]epibatidine from human alpha4beta2 nAChR extracted from HEK293 cell membrane assessed as dissociation constant incubated for 240 mins by liquid scintillation counting method; format: cell membranes
[6] = molecular target: T2, Neuronal acetylcholine receptor; alpha3/beta4 (Rattus norvegicus, UniProt P04757+P12392); assay: Displacement of [3H]epibatidine from rat alpha3beta4 nAChR extracted from HEK293 cell membrane assessed as inhibition constant incubated for 60 to 120 mins by liquid scintillation counting method; format: cell membranes
[7] = molecular target: T3, Neuronal acetylcholine receptor; alpha3/beta4 (Rattus norvegicus) (UniProt P04757+P12392); assay: Displacement of [3H]epibatidine from rat alpha3beta4 nAChR extracted from HEK293 cell membrane assessed as association binding constant (Kon) incubated for 60 to 120 mins by liquid scintillation counting method; format: cell membranes; conditions: filed as agonist, time lower 60.0 min, time upper […]
[8] = molecular target: T3, Neuronal acetylcholine receptor; alpha3/beta4 (Rattus norvegicus); assay: Displacement of [3H]epibatidine from rat alpha3beta4 nAChR extracted from HEK293 cell membrane assessed as dissociation binding constant (Koff) incubated for 60 to 120 mins by liquid scintillation counting method; format: cell membranes; conditions: filed as agonist, time lower 60.0 min, time upper […]
[9] = molecular target: T3, Neuronal acetylcholine receptor; alpha3/beta4 (Rattus norvegicus); assay: Displacement of [3H]epibatidine from rat alpha3beta4 nAChR extracted from HEK293 cell membrane assessed as residence time incubated for 60 to 120 mins by liquid scintillation counting method; format: cell membranes; conditions: filed as agonist, time lower 60.0 min, time upper […]
[10] = molecular target: T2, Neuronal acetylcholine receptor; alpha3/beta4; assay: Displacement of [3H]epibatidine from rat alpha3beta4 nAChR extracted from HEK293 cell membrane assessed as dissociation constant incubated for 60 to 120 mins by liquid scintillation counting method; format: cell membranes
[11] = Selectivity index, ratio of Ki for displacement of [3H]epibatidine from rat alpha3beta4 nAChR extracted from HEK293 cell membrane to Ki for displacement of [3H]epibatidine from human alpha4beta2 nAChR extracted from HEK293 cell membrane
[12] = Selectivity index, ratio of K(on) for displacement of [3H]epibatidine from human alpha4beta2 nAChR extracted from HEK293 cell membrane to K(on) for displacement of [3H]epibatidine from rat alpha3beta4 nAChR extracted from HEK293 cell membrane
[13] = Selectivity index, ratio of K(off) for displacement of [3H]epibatidine from human alpha4beta2 nAChR extracted from HEK293 cell membrane to K(off) for displacement of [3H]epibatidine from rat alpha3beta4 nAChR extracted from HEK293 cell membrane
[14] = molecular target: T1, Neuronal acetylcholine receptor; alpha4/beta2; assay: Displacement of [3H]epibatidine from human alpha4beta2 nAChR extracted from HEK293 cell membrane assessed as fold increase in association binding constant (Kon) incubated for 240 mins by liquid scintillation counting method relative to (+)-DHbetaE; format: cell membranes; conditions: filed as antagonist
[15] = molecular target: T1, Neuronal acetylcholine receptor; alpha4/beta2; assay: Displacement of [3H]epibatidine from human alpha4beta2 nAChR extracted from HEK293 cell membrane assessed as fold increase in […] binding constant (Koff) incubated for 240 mins by liquid scintillation counting method relative to (+)-DHbetaE; format: cell membranes; conditions: filed as antagonist

T1 sequence (P17787 whole entry): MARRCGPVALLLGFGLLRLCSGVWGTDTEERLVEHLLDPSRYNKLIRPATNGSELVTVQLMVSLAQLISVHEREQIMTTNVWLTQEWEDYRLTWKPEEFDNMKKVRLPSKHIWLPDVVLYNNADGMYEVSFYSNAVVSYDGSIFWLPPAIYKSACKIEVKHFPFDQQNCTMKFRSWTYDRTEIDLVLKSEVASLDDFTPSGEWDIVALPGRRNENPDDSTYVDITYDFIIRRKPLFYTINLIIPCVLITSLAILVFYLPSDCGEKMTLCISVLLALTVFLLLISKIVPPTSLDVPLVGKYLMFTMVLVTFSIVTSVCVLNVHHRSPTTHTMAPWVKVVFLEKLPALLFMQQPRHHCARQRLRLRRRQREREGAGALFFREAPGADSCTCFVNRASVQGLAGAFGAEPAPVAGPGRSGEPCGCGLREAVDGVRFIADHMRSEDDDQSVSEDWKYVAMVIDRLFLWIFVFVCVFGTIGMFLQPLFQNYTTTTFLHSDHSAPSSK
T1 sequence (P43681 whole entry): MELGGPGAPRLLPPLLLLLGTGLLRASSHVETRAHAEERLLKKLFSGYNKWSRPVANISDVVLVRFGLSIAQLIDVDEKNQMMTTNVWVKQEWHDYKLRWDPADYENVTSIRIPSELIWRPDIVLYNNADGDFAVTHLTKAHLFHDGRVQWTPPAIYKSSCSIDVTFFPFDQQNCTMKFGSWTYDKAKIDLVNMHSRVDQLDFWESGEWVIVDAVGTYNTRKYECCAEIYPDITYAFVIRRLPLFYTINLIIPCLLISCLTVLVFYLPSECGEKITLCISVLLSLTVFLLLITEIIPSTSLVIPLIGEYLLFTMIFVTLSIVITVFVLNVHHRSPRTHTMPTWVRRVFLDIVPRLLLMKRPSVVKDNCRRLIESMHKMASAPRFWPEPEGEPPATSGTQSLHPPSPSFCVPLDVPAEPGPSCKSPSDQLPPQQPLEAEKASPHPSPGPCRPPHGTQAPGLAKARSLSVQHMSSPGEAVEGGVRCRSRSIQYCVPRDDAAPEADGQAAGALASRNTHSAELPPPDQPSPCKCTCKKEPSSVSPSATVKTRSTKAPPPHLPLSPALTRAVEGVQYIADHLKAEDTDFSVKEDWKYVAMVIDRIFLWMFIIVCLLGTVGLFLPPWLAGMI
T2 sequence (P04757 whole entry): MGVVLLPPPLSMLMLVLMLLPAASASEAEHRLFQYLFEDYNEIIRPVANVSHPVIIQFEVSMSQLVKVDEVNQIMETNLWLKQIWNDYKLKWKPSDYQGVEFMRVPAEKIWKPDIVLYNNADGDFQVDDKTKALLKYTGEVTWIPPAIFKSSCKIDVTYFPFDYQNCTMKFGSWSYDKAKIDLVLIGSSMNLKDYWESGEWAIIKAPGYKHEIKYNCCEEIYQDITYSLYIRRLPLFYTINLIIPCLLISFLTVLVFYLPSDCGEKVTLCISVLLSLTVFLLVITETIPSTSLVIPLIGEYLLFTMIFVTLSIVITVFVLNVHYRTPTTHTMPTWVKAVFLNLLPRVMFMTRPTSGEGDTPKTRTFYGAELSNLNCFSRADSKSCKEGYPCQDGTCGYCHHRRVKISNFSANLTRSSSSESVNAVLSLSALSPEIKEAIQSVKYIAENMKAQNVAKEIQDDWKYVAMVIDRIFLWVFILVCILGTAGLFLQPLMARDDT
T2 sequence (P12392 whole entry): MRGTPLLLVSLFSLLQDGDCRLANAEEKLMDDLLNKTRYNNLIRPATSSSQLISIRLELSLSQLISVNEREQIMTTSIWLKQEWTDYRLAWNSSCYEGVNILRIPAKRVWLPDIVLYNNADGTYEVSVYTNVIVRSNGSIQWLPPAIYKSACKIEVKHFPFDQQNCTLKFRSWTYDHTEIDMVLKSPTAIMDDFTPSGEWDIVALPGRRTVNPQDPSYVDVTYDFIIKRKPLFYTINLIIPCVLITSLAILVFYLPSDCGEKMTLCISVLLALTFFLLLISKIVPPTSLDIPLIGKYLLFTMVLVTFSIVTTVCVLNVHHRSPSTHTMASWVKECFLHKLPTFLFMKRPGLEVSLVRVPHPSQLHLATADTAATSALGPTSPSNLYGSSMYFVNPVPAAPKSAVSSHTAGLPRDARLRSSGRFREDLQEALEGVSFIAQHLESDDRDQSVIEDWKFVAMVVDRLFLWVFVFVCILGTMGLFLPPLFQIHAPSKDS

## C[N+](C)(C)CCOC(N)=O [CARBAMOYLCHOLINE]
[1]
  pKi: 7.25
[2]; filed as agonist
  K: 16700 M⁻¹ s⁻¹
[3]; filed as agonist
  K: 0.25 min⁻¹
[4]; filed as agonist
  TIME: 0.09 h
[5]
  pKd: 6.70
[6]
  pKi: 5.70
[7]
  K: 0.31 10^-3/nM/min
[8]
  K: 0.33 min⁻¹
[9]
  TIME: 0.06 h
[10]
  pKd: 5.82
[11]
  Ratio Ki: 8

## CCOc1cncc(/C=C/CCNC)c1
[1]
  pKi: 9.10
[2]; filed as agonist
  K: 4.83e+06 M⁻¹ s⁻¹
[3]; filed as agonist
  K: 0.57 min⁻¹
[4]; filed as agonist
  TIME: 0.0417 h
[5]
  pKd: 8.77
[6]
  pKi: 4.60
[7]
  K: 0.064 10^-3/nM/min
[8]
  K: 0.77 min⁻¹
[9]
  TIME: 0.0283 h
[10]
  pKd: 4.92
[11]
  Ratio Ki: 7000

## O=c1cccc2n1C[C@@H]1CNC[C@H]2C1 [CYTISINICLINE]
[1]
  pKi: 9.70
[2]; filed as agonist
  K: 4.33e+06 M⁻¹ s⁻¹
[3]; filed as agonist
  K: 0.05 min⁻¹
[4]; filed as agonist
  TIME: 0.367 h
[5]
  pKd: 9.68
[6]
  pKi: 6.96
[7]
  K: 33300 M⁻¹ s⁻¹
[8]
  K: 0.24 min⁻¹
[9]
  TIME: 0.075 h
[10]
  pKd: 6.82
[11]
  Ratio Ki: 150

## Clc1ccc(C2CC3CCC2N3)cn1 (racemic)
[2]; filed as agonist
  K: 2.17e+07 M⁻¹ s⁻¹
[3]; filed as agonist
  K: 0.012 min⁻¹
[4]; filed as agonist
  TIME: 1.4 h
[7]
  K: 2.17e+07 M⁻¹ s⁻¹
[8]
  K: 0.17 min⁻¹
[9]
  TIME: 0.103 h

## CO[C@H]1CC=C2CCN3CCC4=C(CC(=O)OC4)[C@]23C1
[2]; filed as antagonist
  K: 0.3 10^-3/nM/min
[3]; filed as antagonist
  K: 0.01 min⁻¹
[4]; filed as antagonist
  TIME: 1.87 h

## CN1CCC[C@H]1c1cccnc1
[2]; filed as agonist
  K: 3.83e+06 M⁻¹ s⁻¹
[3]; filed as agonist
  K: 0.27 min⁻¹
[4]; filed as agonist
  TIME: 0.0683 h
[7]
  K: 33300 M⁻¹ s⁻¹
[8]
  K: 0.3 min⁻¹
[9]
  TIME: 0.0683 h

## Cc1ncccc1OC[C@@H]1CCCN1 [POZANICLINE]
[2]; filed as agonist
  K: 517000 M⁻¹ s⁻¹
[3]; filed as agonist
  K: 0.23 min⁻¹
[4]; filed as agonist
  TIME: 0.0783 h
[6]
  pKi: 5.00
[7]
  K: 0.03 10^-3/nM/min
[8]
  K: 0.44 min⁻¹
[9]
  TIME: 0.04 h
[10]
  pKd: 4.77

## OCCCCC#Cc1cncc(OC[C@@H]2CCN2)c1
[1]
  pKi: 10.77
[2]; filed as agonist
  K: 1.12e+07 M⁻¹ s⁻¹
[3]; filed as agonist
  K: 0.004 min⁻¹
[4]; filed as agonist
  TIME: 4.5 h
[5]
  pKd: 11.22
[6]
  pKi: 5.66
[7]
  K: 0.2 10^-3/nM/min
[8]
  K: 0.39 min⁻¹
[9]
  TIME: 0.0467 h
[10]
  pKd: 5.66
[11]
  Ratio Ki: 7000
[12]
  Ratio: 3000
[13]
  Ratio: 100

## CO[C@H]1CC=C2CCN3CCc4ccc(O)cc4[C@]23C1
[1]
  pKi: 8.51
[2]; filed as antagonist
  K: 750000 M⁻¹ s⁻¹
[3]; filed as antagonist
  K: 0.12 min⁻¹
[4]; filed as antagonist
  TIME: 0.15 h
[5]
  pKd: 8.54
[14]
  Ratio: 130
[15]
  Ratio: 13
